From ChEMBL document CHEMBL5465560, “Selectivity Literature for EUbOPEN Chemogenomic Library” (2024)

Columns and labels:
[1] = Selectivity interaction (KinomeScan (DiscoverX)) EUB0000607a CDK2H; details: at 10 µM
[2] = target: T1, Histone-lysine N-methyltransferase NSD3 (Homo sapiens) (UniProt Q9BZ95); assay: Selectivity interaction (Methyltransferase screen (Scintillation proximity assays)) EUB0000255b NSD3
T1 sequence (whole entry): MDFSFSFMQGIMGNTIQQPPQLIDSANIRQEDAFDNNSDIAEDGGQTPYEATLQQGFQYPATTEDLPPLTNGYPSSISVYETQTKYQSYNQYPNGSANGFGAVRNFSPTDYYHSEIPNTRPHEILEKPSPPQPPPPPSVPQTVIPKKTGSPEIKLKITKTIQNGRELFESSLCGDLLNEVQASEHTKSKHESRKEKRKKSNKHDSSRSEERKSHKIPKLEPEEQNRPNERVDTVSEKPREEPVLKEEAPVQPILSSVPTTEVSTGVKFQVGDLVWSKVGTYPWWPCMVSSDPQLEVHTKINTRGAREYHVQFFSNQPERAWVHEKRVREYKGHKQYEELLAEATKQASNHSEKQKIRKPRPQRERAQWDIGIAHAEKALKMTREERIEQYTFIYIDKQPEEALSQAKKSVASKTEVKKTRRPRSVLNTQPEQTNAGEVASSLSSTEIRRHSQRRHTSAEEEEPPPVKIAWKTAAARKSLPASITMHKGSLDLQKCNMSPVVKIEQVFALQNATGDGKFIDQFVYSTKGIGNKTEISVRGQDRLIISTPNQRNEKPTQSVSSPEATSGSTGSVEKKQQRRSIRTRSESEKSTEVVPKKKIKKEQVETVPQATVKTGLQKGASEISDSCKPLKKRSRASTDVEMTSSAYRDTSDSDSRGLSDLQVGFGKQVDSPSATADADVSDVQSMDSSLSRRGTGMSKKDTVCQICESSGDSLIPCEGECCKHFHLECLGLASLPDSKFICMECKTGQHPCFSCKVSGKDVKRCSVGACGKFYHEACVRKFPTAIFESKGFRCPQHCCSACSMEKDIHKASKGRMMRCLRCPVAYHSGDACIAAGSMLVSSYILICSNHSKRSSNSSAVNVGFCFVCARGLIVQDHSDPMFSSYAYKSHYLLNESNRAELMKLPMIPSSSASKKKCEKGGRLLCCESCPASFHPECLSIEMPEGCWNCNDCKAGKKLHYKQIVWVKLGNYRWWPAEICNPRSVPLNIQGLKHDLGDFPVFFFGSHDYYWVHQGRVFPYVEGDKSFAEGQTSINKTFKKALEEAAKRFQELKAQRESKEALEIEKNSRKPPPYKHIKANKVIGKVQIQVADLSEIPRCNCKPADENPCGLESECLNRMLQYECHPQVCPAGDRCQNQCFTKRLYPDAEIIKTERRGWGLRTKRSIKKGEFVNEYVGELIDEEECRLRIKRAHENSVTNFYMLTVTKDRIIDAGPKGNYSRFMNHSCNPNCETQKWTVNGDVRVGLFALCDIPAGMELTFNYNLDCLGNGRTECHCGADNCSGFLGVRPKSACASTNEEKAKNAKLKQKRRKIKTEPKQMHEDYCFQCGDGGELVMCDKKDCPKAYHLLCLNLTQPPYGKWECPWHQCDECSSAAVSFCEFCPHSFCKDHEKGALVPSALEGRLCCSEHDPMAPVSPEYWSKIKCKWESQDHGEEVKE

[3] = target: T2, Peripheral plasma membrane protein CASK (Homo sapiens) (UniProt O14936); assay: Selectivity interaction (KinomeScan (DiscoverX)) EUB0000045b CASK
T2 sequence (whole entry): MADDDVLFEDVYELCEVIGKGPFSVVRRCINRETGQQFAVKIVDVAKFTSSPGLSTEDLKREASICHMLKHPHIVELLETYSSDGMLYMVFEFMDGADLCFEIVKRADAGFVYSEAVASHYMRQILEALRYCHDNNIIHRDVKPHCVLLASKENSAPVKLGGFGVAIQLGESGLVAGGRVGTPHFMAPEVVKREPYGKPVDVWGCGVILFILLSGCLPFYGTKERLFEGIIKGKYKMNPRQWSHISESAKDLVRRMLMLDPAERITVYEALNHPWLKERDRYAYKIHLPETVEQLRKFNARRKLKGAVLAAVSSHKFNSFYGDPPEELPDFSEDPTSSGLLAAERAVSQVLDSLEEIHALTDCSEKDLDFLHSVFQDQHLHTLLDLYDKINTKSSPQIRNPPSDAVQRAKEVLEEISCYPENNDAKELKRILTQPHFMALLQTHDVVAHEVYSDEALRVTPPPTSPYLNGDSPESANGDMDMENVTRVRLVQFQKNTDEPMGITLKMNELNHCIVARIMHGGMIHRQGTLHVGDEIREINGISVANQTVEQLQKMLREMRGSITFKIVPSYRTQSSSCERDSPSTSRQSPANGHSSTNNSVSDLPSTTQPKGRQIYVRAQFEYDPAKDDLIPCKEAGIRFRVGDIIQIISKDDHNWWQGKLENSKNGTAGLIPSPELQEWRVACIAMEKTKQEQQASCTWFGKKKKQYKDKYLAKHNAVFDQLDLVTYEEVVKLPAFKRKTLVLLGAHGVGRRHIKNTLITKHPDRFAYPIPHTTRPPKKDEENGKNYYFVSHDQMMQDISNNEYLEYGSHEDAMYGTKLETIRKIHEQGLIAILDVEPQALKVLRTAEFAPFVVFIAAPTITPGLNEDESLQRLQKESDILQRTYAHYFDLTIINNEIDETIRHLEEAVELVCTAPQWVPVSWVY

[4] = target: Insulin-like growth factor 1 receptor (Homo sapiens, UniProt P08069); assay: Selectivity interaction (KinomeScan (DiscoverX)) EUB0000229b IGF1R; details: at 10 µM
Sequence of Insulin-like growth factor 1 receptor (P08069 31-736 limits assumed): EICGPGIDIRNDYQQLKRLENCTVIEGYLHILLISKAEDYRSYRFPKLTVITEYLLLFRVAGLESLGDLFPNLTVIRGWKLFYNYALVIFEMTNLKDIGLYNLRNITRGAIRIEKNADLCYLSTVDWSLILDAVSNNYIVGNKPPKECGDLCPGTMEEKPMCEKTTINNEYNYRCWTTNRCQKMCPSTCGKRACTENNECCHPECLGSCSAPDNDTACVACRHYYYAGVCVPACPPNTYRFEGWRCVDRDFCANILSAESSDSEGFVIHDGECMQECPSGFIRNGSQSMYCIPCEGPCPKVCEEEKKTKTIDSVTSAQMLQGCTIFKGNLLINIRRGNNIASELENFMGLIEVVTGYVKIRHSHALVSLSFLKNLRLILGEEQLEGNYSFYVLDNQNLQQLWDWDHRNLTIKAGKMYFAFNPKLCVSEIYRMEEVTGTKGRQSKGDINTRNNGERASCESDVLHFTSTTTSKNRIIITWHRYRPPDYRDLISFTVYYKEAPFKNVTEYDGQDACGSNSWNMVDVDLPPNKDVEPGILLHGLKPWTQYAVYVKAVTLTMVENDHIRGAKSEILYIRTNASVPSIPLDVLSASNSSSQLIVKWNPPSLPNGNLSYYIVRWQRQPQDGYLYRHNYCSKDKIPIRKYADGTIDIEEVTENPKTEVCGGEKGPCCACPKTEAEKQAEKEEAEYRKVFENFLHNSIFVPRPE
Sequence of Insulin-like growth factor 1 receptor (P08069 741-1367 limits assumed): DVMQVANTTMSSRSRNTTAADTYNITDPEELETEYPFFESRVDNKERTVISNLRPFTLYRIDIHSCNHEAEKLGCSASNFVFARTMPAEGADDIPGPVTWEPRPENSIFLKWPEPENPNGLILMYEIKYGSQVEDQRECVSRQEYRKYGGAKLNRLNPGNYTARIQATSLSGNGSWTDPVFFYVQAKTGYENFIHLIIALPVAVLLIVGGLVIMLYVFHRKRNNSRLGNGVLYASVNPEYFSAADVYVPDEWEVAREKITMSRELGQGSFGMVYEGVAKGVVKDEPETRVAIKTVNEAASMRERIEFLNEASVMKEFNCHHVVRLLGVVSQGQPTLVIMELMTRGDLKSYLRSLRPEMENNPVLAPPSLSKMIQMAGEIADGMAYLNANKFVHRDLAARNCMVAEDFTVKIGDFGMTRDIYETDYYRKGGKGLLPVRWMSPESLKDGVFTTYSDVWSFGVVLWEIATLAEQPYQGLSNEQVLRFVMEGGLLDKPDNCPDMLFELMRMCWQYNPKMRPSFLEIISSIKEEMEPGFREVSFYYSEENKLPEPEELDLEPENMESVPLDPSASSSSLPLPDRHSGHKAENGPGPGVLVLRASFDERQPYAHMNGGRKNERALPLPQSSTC

In the case of `CNC(=O)Nc1ccc(-c2nc(N3CC4CCC(C3)O4)c3cnn(C4CCC5(CC4)OCCO5)c3n2)cc1`, the % of control [1] is reported as 100%.
Work on `COCCN1CCC(c2cc(CN(C)C(=O)c3cccc(Oc4ccccc4)c3)ccn2)CC1` yielded a % activity ([2]; at 1 µM) of over 95% and a % activity ([2]; at 10 µM) of over 90%.
Work on `C=CC(=O)Nc1cc(-n2c(=O)ccc3cnc4ccc(-c5ccc(NS(C)(=O)=O)cc5)cc4c32)ccc1C` yielded a % of control ([3]; at 1 µM) of 61% and a % of control ([3]; at 10 µM) of 100%.
Compound `COc1cc(N(C)c2ccnc3ccc(C(F)(F)F)cc23)cc(OC)c1OC` has a % binding [4] of 93%.
